Measured values taken from patent US20050165053A1, “Substituted4-aryl-3-(3-aryl-1-oxo-2-propenyl)-2(1h)-quinolinones and analogs as activators of caspases and inducers of apoptosis and the use thereof” (Cytovia, Inc., priority 2001, published 2005).

Experiments:
[1] = target: T1, protein tyrosine phosphatase 1B (PTP1B) (Homo sapiens, UniProt P18031); conditions: read-out: Ki5; cited from earlier work
T1 sequence (P18031 1-435): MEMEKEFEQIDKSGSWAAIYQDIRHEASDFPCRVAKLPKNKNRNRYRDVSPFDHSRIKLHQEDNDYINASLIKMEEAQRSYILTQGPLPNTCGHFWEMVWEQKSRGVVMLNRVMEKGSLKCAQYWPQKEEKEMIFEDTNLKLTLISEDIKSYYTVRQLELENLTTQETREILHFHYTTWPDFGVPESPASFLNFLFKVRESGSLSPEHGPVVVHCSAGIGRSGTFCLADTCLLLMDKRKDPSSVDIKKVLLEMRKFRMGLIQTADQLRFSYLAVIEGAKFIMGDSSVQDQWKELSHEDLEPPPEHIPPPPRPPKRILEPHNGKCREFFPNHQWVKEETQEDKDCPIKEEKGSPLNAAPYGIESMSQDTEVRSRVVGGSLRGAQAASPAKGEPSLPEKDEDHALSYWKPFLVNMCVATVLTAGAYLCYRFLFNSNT

T-47D [2] = assay: Caspase cascade activation assay in T-47D cells (N-(Ac-DEVD)-N'-ethoxycarbonyl-R110 fluorogenic substrate); format: cell-based, Human; conditions: 24 h incubation; for Caspase activity Ratio (net RFU of test compound to control): 0.016 to 10 μM final; for EC50: Homo sapiens, T47D, read-out: Caspase potency EC50
Method: (§1) Human breast cancer cell lines T-47D and ZR-75-1 were grown according to media component mixtures designated by American Type Culture Collection+10% FCS (Life Technologies Division of Invitrogen Corporation), in a 5% CO2-95% humidity incubator at 37° C. T-47D and ZR-75-1 cells were maintained at a cell density between 50 and 80% confluency at a cell density of 0.1 to 0.6×10^6 cells/ml. Cells were harvested at 600×g and resuspended at 0.65×10^6 cells/ml into appropriate media+10% FCS. An aliquot of 45 μl of cells was added to a well of a 96-well microtiter plate containing 2.5 μl of a 10% DMSO in RPMI-1640 media solution containing 0.16 to 100 μM of 6-bromo-3-[3-(4-nitrophenyl)-1-oxo-2-propenyl]-4-phenyl-2(1H)-quinolinone or other test compound (0.016 to 10 μM final). An aliquot of 22.5 μl of cells was added to a well of a 384-well microtiter plate containing 2.5 μl of a 10% DMSO in RPMI-1640 media solution without test compound as the control sample. The samples were mixed by agitation and then incubated at 37° C. for 24 h in a 5% CO2-95% humidity incubator. After incubation, the samples were removed from the incubator and 25 μl of a solution containing 14 μM of N-(Ac-DEVD)-N′-ethoxycarbonyl-R110 (SEQ ID No.: 1) fluorogenic substrate (Cytovia, Inc.; WO99/18856), 20% sucrose (Sigma), 20 mM DTT (Sigma), 200 mM NaCl (Sigma), 40 mM Na PIPES buffer pH 7.2 (Sigma), and 500 μg/ml lysolecithin (Calbiochem) was added. The samples were mixed by agitation and incubated at room temperature. Using a fluorescent plate reader (Model SpectraMax Gemini, Molecular Devices), an initial reading (T=0) was made approximately 1-2 min after addition of the substrate solution, employing excitation at 485 nm and emission at 530 nm, to determine the background fluorescence of the control sample. After the 3 h incubation, the samples were read for fluorescence as above (T=3 h).
(§2) The Relative Fluorescence Unit values (RFU) were used to calculate the sample readings as follows: RFU(T=3h)−Control RFU(T=0)=Net RFU(T=3h)
(§3) The activity of caspase cascade activation was determined by the ratio of the net RFU value for 6-bromo-3-[3-(4-nitrophenyl)-1-oxo-2-propenyl]-4-phenyl-2(1H)-quinolinone or other test compound to that of control samples. The EC50 (nM) was determined by a sigmoidal dose-response calculation (Prism 2.0, GraphPad Software Inc.).

ZR-75-1 [3] = assay: Inhibition of cell proliferation (GI50), CellTiter 96 AQUEOUS One, ZR-75-1; format: cell-based; conditions: Homo sapiens, ZR-75-1, 48 h; read-out: GI50 (dose for 50% inhibition of cell proliferation)
Method: (§4) T-47D and ZR-75-1 cells were grown and harvested as in Example 22. An aliquot of 90 μl of cells (2.2×10^4 cells/ml) was added to a well of a 96-well microtiter plate containing 10 μl of a 10% DMSO in RPMI-1640 media solution containing 1 nM to 100 μM of 6-bromo-3-[3-(4-nitrophenyl)-1-oxo-2-propenyl]-4-phenyl-2(1H)-quinolinone (0.1 nM to 10 μM final). An aliquot of 90 μl of cells was added to a well of a 96-well microtiter plate containing 10 μl of a 10% DMSO in RPMI-1640 media solution without compound as the control sample for maximal cell proliferation (AMax). The samples were mixed by agitation and then incubated at 37° C. for 48 h in a 5% CO2-95% humidity incubator. After incubation, the samples were removed from the incubator and 20 μL of CellTiter 96 AQUEOUS One Solution Cell Proliferation™ reagent (Promega) was added. The samples were mixed by agitation and incubated at 37° C. for 2-4 h in a 5% CO2-95% humidity incubator. Using an absorbance plate reader (Model 1420 Wallac Instruments), an initial reading (T=0) was made approximately 1-2 min after addition of the solution, employing absorbance at 490 nm. This determines the possible background absorbance of the test compounds. No absorbance for 6-bromo-3-[3-(4-nitrophenyl)-1-oxo-2-propenyl]-4-phenyl-2(1H)-quinolinone was found at 490 nm. After the 2-4 h incubation, the samples were read for absorbance as above (ATest). […]

ZR-75-1 [4] = assay: Caspase cascade activation assay in ZR-75-1 cells (N-(Ac-DEVD)-N'-ethoxycarbonyl-R110 fluorogenic substrate); format: cell-based, Human; conditions: ZR-75-1, 24 h incubation; for EC50: Homo sapiens, read-out: Caspase potency EC50; for Caspase activity Ratio (net RFU of test compound to control): 0.016 to 10 μM final
Method: as §1, §2, §3

T-47D [5] = assay: Inhibition of cell proliferation (GI50), CellTiter 96 AQUEOUS One, T-47D; format: cell-based; conditions: Homo sapiens, T47D, 48 h, read-out: GI50 (dose for 50% inhibition of cell proliferation)
Method: as §4

T-47D cells = assay: Apoptosis in T-47D cells by propidium iodide flow cytometry (sub-diploid DNA content); format: cell-based, Human; conditions: 5 μM, 48 h, control 3%
Method: T-47D, a breast cancer cell line, was maintained and harvested as described in Example 22. 5×10^5 cells were treated with 5 μM of 6-bromo-3-[3-(4-nitrophenyl)-1-oxo-2-propenyl]-4-phenyl-2(1H)-quinolinone for 48 h at 37° C. As a control, cells were also incubated with equivalent amount of solvent (DMSO). Cells were harvested at 1,200 rpm and then transferred to 12×75 mm polystyrene tubes. Cells were then resuspended in 500 μl of 1% Na Citrate, 0.1% Triton X-100, 50 μg/ml of propidium iodide and incubated at room temperature for 30 min followed by flow cytometer analysis. All flow cytometry analyses were performed on FACScalibur (Becton Dickinson) using Cell Quest analysis software. The x-axis plotted the amount of fluorescence and the y-axis is plotted the number of cells with the indicated fluorescence. The T-47D control cell population profile is seen in FIG. 1A. The sub-diploid DNA content of cells (FIG. 1B) is increased from 3% to 49% with compound treatment. The sub-diploid amount of DNA is indicative of apoptotic cells which have undergone DNA degradation or fragmentation.

| EC50 (T-47D [2]) | EC50 (ZR-75-1 [4]) | GI50 (T-47D [5]) | SMILES | Ki [1] | Caspase activity Ratio (net RFU of test compound to control) (T-47D [2]) | GI50 (ZR-75-1 [3]) | Caspase activity Ratio (net RFU of test compound to control) (ZR-75-1 [4]) | sub-diploid DNA content of cells (M1) (T-47D cells) |
| --- | --- | --- | --- | --- | --- | --- | --- | --- |
|  |  |  | O=C(/C=C/c1cccc([N+](=O)[O-])c1)c1c(-c2ccccc2)c2ccc([N+](=O)[O-])cc2[nH]c1=O [7-Nitro-3-[3-(3-nitrophenyl)-acryloyl]-4-phenyl-1H-quinolin-2-one] | 54000 nM |  |  |  |  |
| 1900 nM | 3300 nM | 500 nM | O=C(C=Cc1ccc([N+](=O)[O-])cc1)c1c(-c2ccccc2)c2cc(Br)ccc2[nH]c1=O [Compound A, 6-bromo-3-[3-(4-nitrophenyl)-1-oxo-2-propenyl]-4-phenyl-2(1H)-quinolinone] |  | 8.7 | 500 nM | 12.4 | 49% |
| 849 nM | 1800 nM |  | O=C(C=Cc1cccc([N+](=O)[O-])c1)c1c(-c2ccccc2)c2cc(Br)ccc2[nH]c1=O [Compound B, 6-bromo-3-[3-(3-nitrophenyl)-1-oxo-2-propenyl]-4-phenyl-2(1H)-quinolinone] |  | 10.6 |  | 12.1 |  |
